Several values for one entry are separate records, joined by “and”; a condition that tells them apart may be missing. Equal values may be shown once.
System: human acute promyelocytic leukemia cell strain HL-60
Experiment: Differentiation induction of HL-60 cells (NBT-reducing ability); enhancement of the retinoid action of Am80
Assay type: cell-based
Conditions: for Differentiation induction ratio (%), Am80 1 nM + Test compound: four days; for Differentiation induction ratio (%), Test compound alone: test compound alone 100 nM
Procedure: Cells of human acute promyelocytic leukemia cell strain HL-60 were cultured in a CO2 incubator (5% CO2, 37° C.) using the RPMI medium containing 5% FBS. Differentiation inducing action on the HL-60 cells induced by 4-[(5,6,7,8-tetrahydro-5,5,8,8-tetramethyl-2-naphthalenyl)carbamoyl]benzoic acid (Am80) was evaluated on the basis of ability to reduce nitroblue tetrazolium (NBT) determined by observing differentiation from promyelocytic cells into granulocytic cells as an index. The cells that entered into the logarithmic phase and reached a substantially confluent state were centrifuged at 1000 rpm for 5 minutes, and the culture supernatant was removed. The cell pellet was suspended in fresh RPMI medium containing 5% FBS at a density of 8.0×10^4 cells/ml, then the suspension was added with a test compound dissolved in DMSO at an intended concentration, and the cells were cultured for four days and then used for the experiment. The samples were prepared so as to have the same DMSO concentration.
Cell count of the cells after the culture for a predetermined period was determined by a cell counting method using a blood cell counting chamber. The NBT-reducing ability was obtained as follows. NBT was dissolved in phosphate buffered saline (PBS(−)) at a concentration of 0.2%, and the solution was added with an equivalent volume of the RPMI medium containing 5% FBS. The mixture was added with phorbol 12-myristate 13-acetate (tPA) at a concentration of 0.2 μM (about 200 ng) to prepare a reagent solution. The collected cells were centrifuged at 1000 rpm for 5 minutes, the supernatant was removed, and the remained cell pellet was added with the reagent solution. The mixture was incubated on a water bath at 37° C. for 20 minutes, and then NBT-reduced stained positive cells were counted by using the counting chamber to calculate a differentiation induction ratio. The same test was performed with allowing the compounds of the present invention prepared in the aforementioned examples (all were carboxylic acid compounds) to coexist with Am80 to confirm action of the compounds of the present invention for enhancing the retinoid action of Am80. As a compound having a retinoid action enhancing action (positive control), 4-[2,3-(2,5-dimethyl-2,5-hexano)dibenzo[b,f][1,4]thiazepin-11-yl]benzoic acid (HX630, Japanese Patent Unexamined Publication No. 10-59951) was used.

[1] = Am80 1 nM + test compound 1 × 10^−7M
[2] = Am80 1 nM + test compound 1 × 10^−8M
[3] = Am80 1 nM + test compound 1 × 10^−9M
[4] = cultured four days, NBT-positive cells

Row | SMILES | Differentiation induction ratio (%), Am80 alone (Am80 alone 1 nM, cultured four days, NBT-positive cells) | Differentiation induction ratio (%), Am80 1 nM + Test compound [1] [%] | Differentiation induction ratio (%), Am80 1 nM + Test compound [2] [%] | Differentiation induction ratio (%), Am80 1 nM + Test compound [3] [%] | Differentiation induction ratio (%), Test compound alone [4] [%]
1 | CC1(C)CCC(C)(C)c2cc(NC(=O)c3ccc(C(=O)O)cc3)ccc21 [Am80, 4-[(5,6,7,8-tetrahydro-5,5,8,8-tetramethyl-2-naphthalenyl)carbamoyl]benzoic acid, reference compound] | 16.9% and 15.9% | – | – | – | –
2 | CCN(c1ccc(C(=O)O)cc1)c1cc2c3c(c1)CCCC3CCC2 [Example 3, 4-[N-Ethyl-(5,6,6a,7,8,9-hexahydro-4H-2-phenalenyl)amino]benzoic acid] | – | 25.8 | 26.4 | 20.5 | 1.5
3 | O=C(O)c1ccc(N(CC2CC2)c2cc3c4c(c2)CCCC4CCC3)cc1 [Example 4, 4-[N-Cyclopropylmethyl-(5,6,6a,7,8,9-hexahydro-4H-2-phenalenyl)amino]benzoic acid] | – | 82.9 | 37.5 | 23.9 | 1.9
4 | CCN(c1ccc(C(=O)O)cc1)c1cc2c3c(c1)CCCCC3CCCC2 [Example 19, 4-[N-Ethyl-(5,6,7,7a,8,9,10,11-octahydro-4H-2-benzo[ef]heptalenyl)amino]benzoic acid] | – | 85.4 | 44.6 | 31.8 | 2.2
5 | O=C(O)c1ccc(N(CC2CC2)c2cc3c4c(c2)CCCCC4CCCC3)cc1 [Example 20, 4-[N-Cyclopropylmethyl-(5,6,7,7a,8,9,10,11-octahydro-4H-2-benzo[ef]heptalenyl)amino]benzoic acid] | – | 89.8 | 54.8 | 35.2 | 1.4
6 | CC1(C)CCC(C)(C)c2cc3c(cc21)Sc1ccccc1N=C3c1ccc(C(=O)O)cc1 [HX630, 4-[2,3-(2,5-dimethyl-2,5-hexano)dibenzo[b,f][1,4]thiazepin-11-yl]benzoic acid, reference compound] | – | 72.3 | 27.8 | 20.4 | 1.6

From patent US8143260B2, “Tricyclic amine compound” (Research Foundation Itsuu Laboratory, priority 2007, dated 2012)
